Assay results reported in patent publication US8022035B2, “Y4 selective receptor agonists for therapeutic interventions” (7TM Pharma A/S, priority 2005, dated 2011).
Where two headings read alike, the source gives them in different places. Where no end group is shown, it is not given here.

Tests used:
Type in all cases: cell-based
human Y2 receptor = target: T1, human Y2 receptor (Homo sapiens, UniProt P49146); assay: Human Y2 receptor potency assay (inositol phosphate turnover)
T1 construct: expressed in transfected cells; host or cells: COS-7 cells, transient transfection, co-transfected with Gqi5
T1 sequence (P49146 1-381): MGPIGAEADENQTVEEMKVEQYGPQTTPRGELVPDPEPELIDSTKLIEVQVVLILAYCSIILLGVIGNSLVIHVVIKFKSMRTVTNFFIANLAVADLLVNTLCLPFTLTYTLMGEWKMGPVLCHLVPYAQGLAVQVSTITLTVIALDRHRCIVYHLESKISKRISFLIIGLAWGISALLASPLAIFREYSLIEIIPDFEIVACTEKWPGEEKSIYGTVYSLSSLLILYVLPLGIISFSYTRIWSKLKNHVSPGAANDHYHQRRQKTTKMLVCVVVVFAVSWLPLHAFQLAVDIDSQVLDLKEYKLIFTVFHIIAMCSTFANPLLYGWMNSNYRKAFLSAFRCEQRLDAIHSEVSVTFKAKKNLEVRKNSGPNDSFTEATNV
Method: Potency of the test compounds on the human Y2 receptor is determined by performing dose-response experiments in COS-7 cells transiently transfected with the human Y2 receptor as well as a promiscuous G protein, Gqi5 which ensures that the Y2 receptor couples through a Gq pathway leading to an increase in inositol phosphate turnover. […] After stimulation with various concentrations of peptide for 45 min at 37 C, cells are extracted with 10% ice-cold perchloric acid followed by incubation on ice for 30 min. […] Determinations are made in duplicates.

human Y1 receptor = target: T2, human Y1 receptor (Homo sapiens, UniProt P25929); assay: Human Y1 receptor potency assay (inositol phosphate turnover)
T2 construct: expressed in transfected cells; host or cells: COS-7 cells
T2 sequence (P25929 1-384): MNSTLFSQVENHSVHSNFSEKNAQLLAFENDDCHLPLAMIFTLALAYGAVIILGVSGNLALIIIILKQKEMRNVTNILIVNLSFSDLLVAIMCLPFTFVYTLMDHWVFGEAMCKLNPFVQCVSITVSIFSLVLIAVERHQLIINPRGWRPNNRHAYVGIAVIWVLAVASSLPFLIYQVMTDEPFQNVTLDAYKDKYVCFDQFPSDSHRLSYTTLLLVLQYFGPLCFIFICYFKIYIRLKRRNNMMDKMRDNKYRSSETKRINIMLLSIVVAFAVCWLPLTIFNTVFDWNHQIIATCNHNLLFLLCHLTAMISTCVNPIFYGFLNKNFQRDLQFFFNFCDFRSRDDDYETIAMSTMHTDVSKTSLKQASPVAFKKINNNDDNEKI
Method: Cells are washed twice in buffer, 20 mM HEPES, pH 7.4, supplemented with 140 mM NaCl, 5 mM KCl, 1 mM MgSO4, 1 mM CaCl2, 10 mM glucose, 0.05% (w/v) bovine serum; and are incubated in 0.5 ml buffer supplemented with 10 mM LiCl at 37 C for 30 min. After stimulation with various concentrations of peptide for 45 min at 37 C, cells are extracted with 10% ice-cold perchloric acid followed by incubation on ice for 30 min. The resulting supernatants are neutralized with KOH in HEPES buffer, and the generated [3H]-inositol phosphate are purified on Bio-Rad AG 1-X8 anion-exchange resin and counted in a beta counter. Determinations are made in duplicates. EC50 values were calculated using a standard pharmacological data handling software, Prism 3.0 (graphpad Sofware, San Diego, USA).
Protocol as for the Y2 potency assay, except that human Y1-transformed COS-7 cells are used.

human Y4 receptor = target: T3, human Y4 receptor (Homo sapiens, UniProt P50391); assay: Human Y4 receptor potency assay (inositol phosphate turnover)
T3 construct: expressed in transfected cells; host or cells: COS-7 cells
T3 sequence (P50391 whole entry): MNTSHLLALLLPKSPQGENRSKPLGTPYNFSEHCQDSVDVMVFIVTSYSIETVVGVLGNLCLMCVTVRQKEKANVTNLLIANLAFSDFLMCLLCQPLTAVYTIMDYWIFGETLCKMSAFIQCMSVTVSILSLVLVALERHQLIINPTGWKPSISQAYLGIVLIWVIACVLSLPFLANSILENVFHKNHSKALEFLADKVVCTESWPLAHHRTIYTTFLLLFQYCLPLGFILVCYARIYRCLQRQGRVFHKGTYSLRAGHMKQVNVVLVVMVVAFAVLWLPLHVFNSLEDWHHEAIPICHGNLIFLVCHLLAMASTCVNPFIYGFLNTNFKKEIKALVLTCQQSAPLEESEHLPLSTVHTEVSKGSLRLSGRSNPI
Method: After stimulation with various concentrations of peptide for 45 min at 37 C, cells are extracted with 10% ice-cold perchloric acid followed by incubation on ice for 30 min. The resulting supernatants are neutralized with KOH in HEPES buffer, and the generated [3H]-inositol phosphate are purified on Bio-Rad AG 1-X8 anion-exchange resin and counted in a beta counter. Determinations are made in duplicates. […] Protocol as for the Y2 potency assay, except that human Y4-transformed COS-7 cells are used.

[1] = COS-7 cells transiently transfected with human Y2 receptor and Gqi5, [3H]-inositol phosphate turnover, peptide 45 min at 37 C, read-out: hY2 EC50
[2] = human Y1-transformed COS-7 cells, [3H]-inositol phosphate turnover, peptide 45 min at 37 C, read-out: hY1 EC50

Compound	EC50 (human Y2 receptor; [1])	EC50 (human Y1 receptor; [2])	further results
PLEPVYPGDNATPEQMAQYAADLRRYINALTRPRY-NH2 [[Ala-30]-PP(2-36), [Ala30]PP2-36]	> 1 µM	> 1 µM	–
CC[C@H](C)[C@H](NC(=O)[C@H](Cc1ccc(O)cc1)NC(=O)[C@H](CCCNC(=N)N)NC(=O)[C@H](CCCNC(=N)N)NC(=O)[C@H](CC(C)C)NC(=O)[C@H](CC(=O)O)NC(=O)[C@H](C)NC(=O)[C@H](C)NC(=O)[C@H](Cc1ccc(O)cc1)NC(=O)[C@H](CCC(N)=O)NC(=O)[C@H](C)NC(=O)[C@H](CCSC)NC(=O)[C@H](CCC(N)=O)NC(=O)[C@H](CCC(=O)O)NC(=O)[C@@H]1CCCN1C(=O)[C@@H](NC(=O)[C@H](C)NC(=O)[C@H](CC(N)=O)NC(=O)[C@H](CCC(=O)O)NC(=O)CNC(=O)[C@@H]1CCCN1C(=O)[C@H](Cc1ccc(O)cc1)NC(=O)[C@@H](NC(=O)[C@@H]1CCCN1C(=O)[C@H](CCC(=O)O)NC(=O)[C@H](CC(C)C)NC(=O)[C@@H]1CCCN1)C(C)C)[C@@H](C)O)C(=O)N[C@@H](CC(N)=O)C(=O)N[C@@H](CCSC)C(=O)N[C@@H](CC(C)C)C(=O)N[C@H](C(=O)N[C@@H](CCCNC(=N)N)C(=O)N1CCC[C@H]1C(=O)N[C@@H](CCCNC(=N)N)C(=O)N[C@@H](Cc1ccc(O)cc1)C(N)=O)[C@@H](C)O [[Glu-10]-PP(2-36), [Glu10]PP2-36]	–	–	EC50 (human Y2 receptor): > 1 µM
CCCC[C@H](NC(=O)[C@H](CCC(N)=O)NC(=O)[C@H](CCC(=O)O)NC(=O)[C@@H]1CCCN1C(=O)[C@@H](NC(=O)[C@H](C)NC(=O)[C@H](CC(N)=O)NC(=O)[C@H](CC(=O)O)NC(=O)CNC(=O)[C@@H]1CCCN1C(=O)[C@H](Cc1ccc(O)cc1)NC(=O)[C@@H](NC(=O)[C@@H]1CCCN1C(=O)[C@H](CCC(=O)O)NC(=O)[C@H](CC(C)C)NC(=O)[C@@H]1CCCN1)C(C)C)[C@@H](C)O)C(=O)N[C@@H](C)C(=O)N[C@@H](CCC(N)=O)C(=O)N[C@@H](Cc1ccc(O)cc1)C(=O)N[C@@H](C)C(=O)N[C@@H](C)C(=O)N[C@@H](CC(=O)O)C(=O)N[C@@H](CC(C)C)C(=O)N[C@@H](CCCNC(=N)N)C(=O)N[C@@H](CCCNC(=N)N)C(=O)N[C@@H](Cc1ccc(O)cc1)C(=O)N[C@H](C(=O)N[C@@H](CC(N)=O)C(=O)N[C@@H](CCCC)C(=O)N[C@@H](CC(C)C)C(=O)N[C@H](C(=O)N[C@@H](CCCNC(=N)N)C(=O)N1CCC[C@H]1C(=O)N[C@@H](CCCNC(=N)N)C(=O)N[C@@H](Cc1ccc(O)cc1)C(N)=O)[C@@H](C)O)[C@@H](C)CC [[Nle17,Nle30]-PP(2-36), [Nle17, Nle30]PP2-36]	> 1 µM	–	–
PLEPVYPGDNATPEQMAQYAADLRRYINTLTRPRY-NH2 [[Thr-30]-PP(2-36), [Thr30]PP2-36]	> 1 µM	> 1 µM	EC50 (human Y4 receptor; human Y4-transformed COS-7 cells, [3H]-inositol phosphate turnover, peptide 45 min at 37 C, read-out: hY4 EC50): 0.00107 µM
PLEPVYPGDNATPEQMAQYAADLRRYINNLTRPRY-NH2 [[Asn-30]-PP(2-36), [Asn30]PP2-36]	> 1 µM	> 1 µM	–
PLEPVYPGDNATPEQMAQYAADLRRYINQLTRPRY-NH2 [[Gln-30]-PP(2-36), [Gln30]PP2-36]	> 1 µM	> 1 µM	–
PLEPVYPGENATPEQLAQYAADLRRYINTLTRPRY-NH2 [[Glu10;Leu17;Thr-30]-PP(2-36), [Glu10, Leu17, Thr30]PP2-36]	–	–	EC50 (human Y2 receptor): > 1 µM; EC50 (human Y4 receptor): 0.00107 µM; EC50 (human Y1 receptor): > 1 µM
